Measurements as given in patent publication US10508104B2, “6-hydroxy-5-(phenyl/heteroarylsulfonyl)pyrimidin-4(1H)-one as APJ agonists” (Bristol-Myers Squibb Company, priority 2016, dated 2019).
Where two headings read alike, the source gives them in different places.

Target: human APJ receptor (Homo sapiens (Human), UniProt P35414)
Test: Intracellular cAMP accumulation assay (APJ hcAMP, HTRF)
Type: cell-based
Settings: read-out: Human APJ cAMP EC50 Potency range
Procedure, shortened: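 HEK293 cells stably expressing human APJ, 5,000 per well, incubated 30 min at rt with compound, […] and 2 μM forskolin. cAMP measured by HTRF against a cAMP standard curve as inhibition of forskolin-driven production. EC50 from variable-slope sigmoidal fit.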

[1] = human APJ, intracellular cAMP accumulation
[2] = HEK293 cells stably expressing human APJ receptor, inhibition of forskolin-mediated cAMP production

Chain of human APJ receptor (P35414 whole entry): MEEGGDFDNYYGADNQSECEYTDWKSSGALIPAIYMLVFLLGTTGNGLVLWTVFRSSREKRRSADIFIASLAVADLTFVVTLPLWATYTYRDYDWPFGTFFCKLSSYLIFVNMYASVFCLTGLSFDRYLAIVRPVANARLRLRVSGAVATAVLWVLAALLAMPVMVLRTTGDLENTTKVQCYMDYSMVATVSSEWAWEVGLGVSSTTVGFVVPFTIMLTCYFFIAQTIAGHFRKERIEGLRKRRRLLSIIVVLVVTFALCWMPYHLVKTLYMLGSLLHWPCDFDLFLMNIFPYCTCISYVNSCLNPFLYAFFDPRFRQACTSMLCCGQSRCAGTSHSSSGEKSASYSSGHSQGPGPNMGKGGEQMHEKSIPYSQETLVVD

| SMILES | EC50 [1] | EC50 [2] |
| --- | --- | --- |
| CCCCc1nc(=O)c(S(=O)(=O)c2ccc(C(=O)N3CC(C)(O)C3)cc2)c(O)n1-c1c(OC)cccc1OC [Example 94, 2-butyl-1-(2,6-dimethoxyphenyl)-6-hydroxy-5-[4-(3-hydroxy-3-methylazetidine-1-carbonyl)benzenesulfo-nyl]-1,4-dihydropyrimidin-4-one] | 0.01 to 10 nM | – |
| CCCCc1nc(=O)c(S(=O)(=O)c2ccc(C(=O)N3CCC(F)(F)C3)cc2)c(O)n1-c1c(OC)cccc1OC [Example 95, 2-butyl-5-[4-(3,3-difluoropyrrolidine-1-carbonyl)benzene-sulfonyl]-1-(2,6-dimethoxyphenyl)-6-hydroxy-1,4-dihydropyrimidin-4-one] | 0.01 to 10 nM | – |
| CCCCc1nc(=O)c(S(=O)(=O)c2ccc(C(=O)N3CCOCC3)cc2)c(O)n1-c1c(OC)cccc1OC [Example 96, 2-butyl-1-(2,6-dimethoxyphenyl)-6-hydroxy-5-[4-(morpholine-4-carbonyl)benzenesulfo-nyl]-1,4-dihydropyrimidin-4-one] | 0.01 to 10 nM | – |
| CCCCc1nc(=O)c(S(=O)(=O)c2ccc(C(=O)Nc3ccc(F)nc3)cc2)c(O)n1-c1c(OC)cccc1OC [Example 97, 4-{[2-butyl-1-(2,6-dimethoxyphenyl)-6-hydroxy-4-oxo-1,4-dihydropyrimidin-5-yl]sulfonyl}-N-(6-fluoropyridin-3-yl)benzamide] | 10 to 100 nM | – |
| CCCCc1nc(=O)c(S(=O)(=O)c2ccc(Br)cn2)c(O)n1-c1c(OC)cccc1OC [Example 98, 5-((5-Bromopyridin-2-yl)sulfonyl)-2-butyl-1-(2,6-dimethoxyphenyl)-6-hydroxypyrimidin-4(1H)-one] | – | 0.01 to 10 nM |
| COc1cccc(OC)c1-n1c(CCC(C)C)nc(=O)c(S(=O)(=O)c2ccccn2)c1O [Example 99, 1-(2,6-dimethoxyphenyl)-6-hydroxy-2-(3-methylbutyl)-5-(pyridine-2-sulfonyl)-1,4-dihydropyrimidin-4-one] | 0.01 to 10 nM | – |
| CCCCc1nc(=O)c(S(=O)(=O)c2cc(C)oc2C)c(O)n1-c1c(OC)cccc1OC [Example 100, 2-butyl-1-(2,6-dimethoxyphenyl)-5-[(2,5-dimethylfuran-3-yl)sulfonyl]-6-hydroxy-1,4-dihydropyrimidin-4-one] | 0.01 to 10 nM | – |
| CCCCc1nc(=O)c(S(=O)(=O)c2ccc(C3CC3)cn2)c(O)n1-c1c(OC)cccc1OC [Example 101, 2-butyl-5-[(5-cyclopropylpyridin-2-yl)sulfonyl]-1-(2,6-dimethoxyphenyl)-6-hydroxy-1,4-dihydropyrimidin-4-one] | 0.01 to 10 nM | – |
| CCCCc1nc(=O)c(S(=O)(=O)c2ccc(C3CC3)cn2)c(O)n1-c1c(CC)cccc1CC [Example 102, 2-butyl-5-[(5-cyclopropylpyridin-2-yl)sulfonyl]-1-(2,6-diethylphenyl)-6-hydroxy-1,4-dihydropyrimidin-4-one] | 0.01 to 10 nM | – |
| CCCCc1nc(=O)c(S(=O)(=O)c2ccc(-c3ccc(F)cc3)cn2)c(O)n1-c1c(OC)cccc1OC [Example 103, 2-butyl-1-(2,6-dimethoxyphenyl)-5-{[5-(4-fluorophenyl)pyridin-2-yl]sulfonyl}-6-hydroxy-1,4-dihydropyrimidin-4-one] | 0.01 to 10 nM | – |
| CCCCc1nc(=O)c(S(=O)(=O)c2ccc(C)cn2)c(O)n1-c1c(CC)cccc1CC [Example 104, 2-butyl-1-(2,6-diethylphenyl)-6-hydroxy-5-[(5-methylpyridin-2-yl)sulfonyl]-1,4-dihydropyrimidin-4-one] | 0.01 to 10 nM | – |
| CCCCc1nc(=O)c(S(=O)(=O)C2CCN(C(=O)OC(C)(C)C)CC2)c(O)n1-c1c(OC)cccc1OC [Example 105, tert-Butyl 4-((2-butyl-1-(2,6-dimethoxyphenyl)-6-hydroxy-4-oxo-1,4-dihydropyrimidin-5-yl)sulfonyl)piperidine-1-carboxylate] | – | 0.01 to 10 nM |

The next lines start with the values.

| EC50 [1] | EC50 [2] | SMILES |
| --- | --- | --- |
| – | 10 to 100 nM | CCCCc1nc(=O)c(S(=O)(=O)C2CCNCC2)c(O)n1-c1c(OC)cccc1OC [Example 106, 2-Butyl-1-(2,6-dimethoxyphenyl)-6-hydroxy-5-(piperidin-4-ylsulfonyl)pyrimidin-4(1H)-one] |
| – | 0.01 to 10 nM | CCCCc1nc(=O)c(S(=O)(=O)C2CCN(C)CC2)c(O)n1-c1c(OC)cccc1OC [Example 107, 2-Butyl-1-(2,6-dimethoxyphenyl)-6-hydroxy-5-((1-methylpiperidin-4-yl)sulfonyl)pyrimidin-4(1H)-one] |
| 0.01 to 10 nM | – | CCCCc1nc(=O)c(S(=O)(=O)C2CCN(CC)CC2)c(O)n1-c1c(OC)cccc1OC [Example 108, 2-butyl-1-(2,6-dimethoxyphenyl)-5-[(1-ethylpiperidin-4-yl)sulfonyl]-6-hydroxy-1,4-dihydropyrimidin-4-one] |
| 0.01 to 10 nM | – | CCCCc1nc(=O)c(S(=O)(=O)C2CCN(Cc3cccc(F)c3F)CC2)c(O)n1-c1c(CC)cccc1CC [Example 109, 2-butyl-1-(2,6-diethylphenyl)-5-({1-[(2,3-difluorophenyl)methyl]piperidin-4-yl}sulfonyl)-6-hydroxy-1,4-dihydropyrimidin-4-one] |
| – | 0.01 to 10 nM | CCCCc1nc(=O)c(S(=O)(=O)C2CCN(C(=O)c3nnc(C)o3)CC2)c(O)n1-c1c(OC)cccc1OC [Example 110, 2-Butyl-1-(2,6-dimethoxyphenyl)-6-hydroxy-5-((1-(5-methyl-1,3,4-oxadiazole-2-carbonyl)piperidin-4-yl)sulfonyl)pyrimidin-4(1H)-one] |
| 0.01 to 10 nM | – | CCCCc1nc(=O)c(S(=O)(=O)C2CCN(C(=O)c3ccccc3)CC2)c(O)n1-c1c(OC)cccc1OC [Example 111, 5-[(1-benzoylpiperidin-4-yl)sulfonyl]-2-butyl-1-(2,6-dimethoxyphenyl)-6-hydroxy-1,4-dihydropyrimidin-4-one] |
| 0.01 to 10 nM | – | CCCCc1nc(=O)c(S(=O)(=O)C2CCN(C(=O)c3ccc(Cl)cc3)CC2)c(O)n1-c1c(OC)cccc1OC [Example 112, 2-butyl-5-{[1-(4-chlorobenzoyl)piperidin-4-yl]sulfonyl}-1-(2,6-dimethoxyphenyl)-6-hydroxy-1,4-dihydropyrimidin-4-one] |
| 0.01 to 10 nM | – | CCCCc1nc(=O)c(S(=O)(=O)C2CCN(C(=O)C3CC3)CC2)c(O)n1-c1c(OC)cccc1OC [Example 113, 2-butyl-5-[(1-cyclopropanecarbonyl-piperidin-4-yl)sulfonyl]-1-(2,6-dimethoxyphenyl)-6-hydroxy-1,4-dihydropyrimidin-4-one] |
| 0.01 to 10 nM | – | CCCCc1nc(=O)c(S(=O)(=O)C2CCN(C(=O)CC(F)(F)F)CC2)c(O)n1-c1c(OC)cccc1OC [Example 114, 2-butyl-1-(2,6-dimethoxyphenyl)-6-hydroxy-5-{[1-(3,3,3-trifluoropropanoyl)piper-idin-4-yl]sulfonyl}-1,4-dihydropyrimidin-4-one] |
| – | 0.01 to 10 nM | CCCCc1nc(=O)c(S(=O)(=O)c2ccc(C(=O)NN)cc2)c(O)n1-c1c(OC)cccc1OC [Example 116, 4-((2-Butyl-1-(2,6-dimethoxyphenyl)-6-hydroxy-4-oxo-1,4-dihydropyrimidin-5-yl)sulfonyl)benzohydrazide] |
| 0.01 to 10 nM | – | CCCCc1nc(=O)c(S(=O)(=O)c2ccc(-c3nnc(C4CC4)o3)cc2)c(O)n1-c1c(OC)cccc1OC [Example 117, 2-butyl-5-[4-(5-cyclopropyl-1,3,4-oxadiazol-2-yl)benzenesulfonyl]-1-(2,6-dimethoxyphenyl)-6-hydroxy-1,4-dihydropyrimidin-4-one] |
